From patent US20240383886A1, “Protein Tyrosine Phosphatase Degraders and Methods of Use Thereof” (CALICO LIFE SCIENCES LLC, priority 2019, published 2024)

Columns and labels:
PTPN2 [1] = assay: HiBiT-Degradation B16F10.4 PTPN2; format: cell-based; details: B16F10.4 cells, 24.0 hours
PTPN2 [2] = biological target: T1, PTPN2 (Homo sapiens, UniProt P17706); assay: HiBiT-Degradation 293T.109 PTPN2 (Nano-Glo HiBiT Lytic Assay); format: cell-based; details: 293T.109 (HiBiT-PTPN2) cells, 24.0 hours
T1 construct: expressed in transfected cells; host or cells: 293T (293T.109 HiBiT-PTPN2 line; parental 293T WT from ATCC)
T1 sequence (P17706 1-415): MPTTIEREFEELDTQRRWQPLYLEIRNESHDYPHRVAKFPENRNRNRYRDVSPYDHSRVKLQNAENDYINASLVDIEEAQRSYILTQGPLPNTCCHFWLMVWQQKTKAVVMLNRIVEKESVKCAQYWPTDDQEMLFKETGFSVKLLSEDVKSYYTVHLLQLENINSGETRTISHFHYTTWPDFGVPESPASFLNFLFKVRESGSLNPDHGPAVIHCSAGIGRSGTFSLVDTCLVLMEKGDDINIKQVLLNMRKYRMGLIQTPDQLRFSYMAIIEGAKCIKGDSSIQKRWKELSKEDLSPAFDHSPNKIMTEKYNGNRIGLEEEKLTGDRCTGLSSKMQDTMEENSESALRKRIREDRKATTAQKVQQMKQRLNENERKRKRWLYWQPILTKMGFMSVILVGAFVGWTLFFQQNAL
Outline: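 Luminescence from a lytic HiBiT read gave PTPN2 levels after 24 h compound exposure at 37° C. Compounds were tested at 11 half-log points from a 10 μM top concentration, in duplicate. The cells were 293T engineered with an N-terminal HiBiT–PTPN2 fusion, plated at 5000 per well, with untreated wells as negative control and no-reagent wells as positive control.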

SMILES | DC50 (PTPN2 [1]) | DC50 (PTPN2 [2])
Cn1c(=O)n(C2CCC(=O)NC2=O)c2ccc(C3CCN(CC(=O)NCCOc4ccc5cc(O)c(N6CC(=O)NS6(=O)=O)c(F)c5c4)CC3(F)F)cc21 (centres unmarked) [Example 140, 2-[4-[1-(2,6-dioxo-3-piperidyl)-3-methyl-2-oxo-benzimidazol-5-yl]-3,3-difluoro-1-piperidyl]-N-[2-[[8-fluoro-6-hydroxy-7-(1,1,4-trioxo-1,2,5-thiadiazolidin-2-yl)-2-naphthyl]oxy]ethyl]acetamide] | ≥ 1 µM | 0.05 to 0.2 µM
Cn1c(=O)n(C2CCC(=O)NC2=O)c2ccc(Nc3ccc(CNC(=O)c4ccc5c(F)c(N6CC(=O)NS6(=O)=O)c(O)cc5c4)cc3)cc21 (centres unmarked) [Example 148, N-[[4-[[1-(2,6-dioxo-3-piperidyl)-3-methyl-2-oxo-benzimidazol-5-yl]amino]phenyl]methyl]-5-fluoro-7-hydroxy-6-(1,1,4-trioxo-1,2,5-thiadiazolidin-2-yl)naphthalene-2-carboxamide] | 0.2 to 1 µM | 0.2 to 1 µM
Cn1c(=O)n(C2CCC(=O)NC2=O)c2ccc(-c3ccc(NCC(C)(C)CCOc4ccc5cc(O)c(N6CC(=O)NS6(=O)=O)c(F)c5c4)cc3)cc21 (centres unmarked) [Example 151, 3-[5-[4-[[4-[[8-fluoro-6-hydroxy-7-(1,1,4-trioxo-1,2,5-thiadiazolidin-2-yl)-2-naphthyl]oxy]-2,2-dimethyl-butyl]amino]phenyl]-3-methyl-2-oxo-benzimidazol-1-yl]piperidine-2,6-dione] | ≥ 1 µM | 0.05 to 0.2 µM
Cn1nc(C2CCC(=O)NC2=O)c2ccc(C3CCN(CCn4cc(-c5ccc6c(F)c(N7CC(=O)NS7(=O)=O)c(O)cc6c5)cn4)CC3)cc21 (centres unmarked) [Example 152, 3-[6-[1-[2-[4-[5-fluoro-7-hydroxy-6-(1,1,4-trioxo-1,2,5-thiadiazolidin-2-yl)-2-naphthyl]pyrazol-1-yl]ethyl]-4-piperidyl]-1-methyl-indazol-3-yl]piperidine-2,6-dione] | 0.2 to 1 µM | 0.01 to 0.05 µM
Cn1c(=O)n(C2CCC(=O)NC2=O)c2ccc(-c3ccc(CNCC(C)(C)CCOc4ccc5cc(O)c(N6CC(=O)NS6(=O)=O)c(F)c5c4)cc3)cc21 (centres unmarked) [Example 153, 3-[5-[4-[[[4-[[8-fluoro-6-hydroxy-7-(1,1,4-trioxo-1,2,5-thiadiazolidin-2-yl)-2-naphthyl]oxy]-2,2-dimethyl-butyl]amino]methyl]phenyl]-3-methyl-2-oxo-benzimidazol-1-yl]piperidine-2,6-dione] | 0.2 to 1 µM | 0.05 to 0.2 µM
Cn1c(=O)n(C2CCC(=O)NC2=O)c2ccc(C3CCN(Cc4ccn(-c5ccc6c(F)c(N7CC(=O)NS7(=O)=O)c(O)cc6c5)n4)CC3)cc21 (centres unmarked) [Example 154, 3-(5-(1-((1-(6-(1,1-dioxido-4-oxo-1,2,5-thiadiazolidin-2-yl)-5-fluoro-7-hydroxynaphthalen-2-yl)-1H-pyrazol-3-yl)methyl)piperidin-4-yl)-3-methyl-2-oxo-2,3-dihydro-1H-benzo[d]imidazol-1-yl)piperidine-2,6-dione] | ≥ 1 µM | 0.2 to 1 µM
Cn1c(=O)n(C2CCC(=O)NC2=O)c2ccc(N3CCC(O)(CC(=O)N4CC[C@@H](COc5ccc6cc(O)c(N7CC(=O)NS7(=O)=O)c(F)c6c5)C4)CC3)cc21 (stereo partly drawn) [Example 155, 3-[5-[4-[2-[(3R)-3-[[8-fluoro-6-hydroxy-7-(1,1,4-trioxo-1,2,5-thiadiazolidin-2-yl)-2-naphthyl]oxymethyl]pyrrolidin-1-yl]-2-oxo-ethyl]-4-hydroxy-1-piperidyl]-3-methyl-2-oxo-benzimidazol-1-yl]piperidine-2,6-dione] | 0.2 to 1 µM | 0.05 to 0.2 µM
Cn1c(=O)n(C2CCC(=O)NC2=O)c2ccc(C3CCN(CC(=O)N4CCN(c5ccc6cc(O)c(N7CC(=O)NS7(=O)=O)c(F)c6c5)CC4)CC3)cc21 (centres unmarked) [Example 156, 3-[5-[1-[2-[4-[8-fluoro-6-hydroxy-7-(1,1,4-trioxo-1,2,5-thiadiazolidin-2-yl)-2-naphthyl]piperazin-1-yl]-2-oxo-ethyl]-4-piperidyl]-3-methyl-2-oxo-benzimidazol-1-yl]piperidine-2,6-dione] | 0.2 to 1 µM | 0.01 to 0.05 µM

The next lines start with the values.

DC50 (PTPN2 [1]) | DC50 (PTPN2 [2]) | SMILES
0.05 to 0.2 µM | 0.01 to 0.05 µM | Cn1c(=O)n(C2CCC(=O)NC2=O)c2ccc(C3CCN(C(=O)CN4CC[C@@H](COc5ccc6cc(O)c(N7CC(=O)NS7(=O)=O)c(F)c6c5)C4)CC3)cc21 (stereo partly drawn) [Example 141, 3-[5-[1-[2-[(3R)-3-[[8-fluoro-6-hydroxy-7-(1,1,4-trioxo-1,2,5-thiadiazolidin-2-yl)-2-naphthyl]oxymethyl]pyrrolidin-1-yl]acetyl]-4-piperidyl]-3-methyl-2-oxo-benzimidazol-1-yl]piperidine-2,6-dione]
0.2 to 1 µM | 0.05 to 0.2 µM | Cn1c(=O)n(C2CCC(=O)NC2=O)c2ccc(N3CCC(CC(=O)N4CCC[C@@H](COc5ccc6cc(O)c(N7CC(=O)NS7(=O)=O)c(F)c6c5)C4)CC3)cc21 (stereo partly drawn) [Example 142, 3-[5-[4-[2-[(3R)-3-[[8-fluoro-6-hydroxy-7-(1,1,4-trioxo-1,2,5-thiadiazolidin-2-yl)-2-naphthyl]oxymethyl]-1-piperidyl]-2-oxo-ethyl]-1-piperidyl]-3-methyl-2-oxo-benzimidazol-1-yl]piperidine-2,6-dione]
0.2 to 1 µM | 0.2 to 1 µM | Cn1c(=O)n(C2CCC(=O)NC2=O)c2ccc(N3CCC(CC(=O)N4CCC[C@H](COc5ccc6cc(O)c(N7CC(=O)NS7(=O)=O)c(F)c6c5)C4)CC3)cc21 (stereo partly drawn) [Example 143, 3-[5-[4-[2-[(3S)-3-[[8-fluoro-6-hydroxy-7-(1,1,4-trioxo-1,2,5-thiadiazolidin-2-yl)-2-naphthyl]oxymethyl]-1-piperidyl]-2-oxo-ethyl]-1-piperidyl]-3-methyl-2-oxo-benzimidazol-1-yl]piperidine-2,6-dione]
0.05 to 0.2 µM | 0.01 to 0.05 µM | Cn1c(=O)n(C2CCC(=O)NC2=O)c2ccc(C3CCN(CCC(=O)N4CC[C@H](c5ccc6cc(O)c(N7CC(=O)NS7(=O)=O)c(F)c6c5)C4)CC3)cc21 (some centres unmarked) [Example 144]
0.05 to 0.2 µM | 0.01 to 0.05 µM | Cn1c(=O)n(C2CCC(=O)NC2=O)c2ccc(C3CCN(CCC(=O)N4CC[C@@H](c5ccc6cc(O)c(N7CC(=O)NS7(=O)=O)c(F)c6c5)C4)CC3)cc21 (some centres unmarked) [Example 145]
0.2 to 1 µM | 0.01 to 0.05 µM | Cn1c(=O)n(C2CCC(=O)NC2=O)c2ccc(C3CCN(Cc4nnc(-c5ccc6c(F)c(N7CC(=O)NS7(=O)=O)c(O)cc6c5)o4)CC3)cc21 (centres unmarked) [Example 146, 3-[5-[1-[[5-[5-fluoro-7-hydroxy-6-(1,1,4-trioxo-1,2,5-thiadiazolidin-2-yl)-2-naphthyl]-1,3,4-oxadiazol-2-yl]methyl]-4-piperidyl]-3-methyl-2-oxo-benzimidazol-1-yl]piperidine-2,6-dione]
0.2 to 1 µM | 0.2 to 1 µM | Cn1c(=O)n(C2CCC(=O)NC2=O)c2ccc(C3CCN(CCN4CCC[C@H](COc5ccc6cc(O)c(N7CC(=O)NS7(=O)=O)c(F)c6c5)C4)CC3)cc21 (stereo partly drawn) [Example 147, 3-[5-[1-[2-[(3S)-3-[[8-fluoro-6-hydroxy-7-(1,1,4-trioxo-1,2,5-thiadiazolidin-2-yl)-2-naphthyl]oxymethyl]-1-piperidyl]ethyl]-4-piperidyl]-3-methyl-2-oxo-benzimidazol-1-yl]piperidine-2,6-dione]
0.05 to 0.2 µM | 0.01 to 0.05 µM | Cn1c(=O)n(C2CCC(=O)NC2=O)c2ccc(C3CCN(CCN4CC[C@@H](COc5ccc6cc(O)c(N7CC(=O)NS7(=O)=O)c(F)c6c5)C4)CC3)cc21 (stereo partly drawn) [Example 149, 3-[5-[1-[2-[(3R)-3-[[8-fluoro-6-hydroxy-7-(1,1,4-trioxo-1,2,5-thiadiazolidin-2-yl)-2-naphthyl]oxymethyl]pyrrolidin-1-yl]ethyl]-4-piperidyl]-3-methyl-2-oxo-benzimidazol-1-yl]piperidine-2,6-dione]
0.05 to 0.2 µM | 0.05 to 0.2 µM | Cn1c(=O)n(C2CCC(=O)NC2=O)c2ccc(C3CCN(CCN4CC[C@H](COc5ccc6cc(O)c(N7CC(=O)NS7(=O)=O)c(F)c6c5)C4)CC3)cc21 (stereo partly drawn) [Example 150, 3-[5-[1-[2-[(3S)-3-[[8-fluoro-6-hydroxy-7-(1,1,4-trioxo-1,2,5-thiadiazolidin-2-yl)-2-naphthyl]oxymethyl]pyrrolidin-1-yl]ethyl]-4-piperidyl]-3-methyl-2-oxo-benzimidazol-1-yl]piperidine-2,6-dione]
0.05 to 0.2 µM | 0.01 to 0.05 µM | Cn1c(=O)n(C2CCC(=O)NC2=O)c2ccc(C3CCN(CC(C)(C)CCOc4ccc5cc(O)c(N6CC(=O)NS6(=O)=O)c(F)c5c4)CC3)cc21 (centres unmarked) [Example 157, 3-[5-[1-[4-[[8-fluoro-6-hydroxy-7-(1,1,4-trioxo-1,2,5-thiadiazolidin-2-yl)-2-naphthyl]oxy]-2,2-dimethyl-butyl]-4-piperidyl]-3-methyl-2-oxo-benzimidazol-1-yl]piperidine-2,6-dione]
0.05 to 0.2 µM | 0.01 to 0.05 µM | O=C1CCC(N2C(=O)c3cccc4c(C5CCN(CC(=O)N6CC(Oc7ccc8cc(O)c(N9CC(=O)NS9(=O)=O)c(F)c8c7)C6)CC5)ccc2c34)C(=O)N1 (centres unmarked) [Example 158, 3-[6-[1-[2-[3-[[8-fluoro-6-hydroxy-7-(1,1,4-trioxo-1,2,5-thiadiazolidin-2-yl)-2-naphthyl]oxy]azetidin-1-yl]-2-oxo-ethyl]-4-piperidyl]-2-oxo-benzo[cd]indol-1-yl]piperidine-2,6-dione]
